How the values were obtained:
Ba/F3 cells = test: Tumor cell growth inhibition test (CCK8 detection), Ba/F3; type: cell-based, mouse
Procedure: (§1) Growth Inhibition Test of the Series of Compounds on Various Tumor Cells (CCK8 Detection)
(1) Ba/F3 mouse IL-3 dependent pro-B lymphocyte cell line, RPMI 1640+10% FBS+10 ng/ml Interleukin-3+1% Sodium Pyruvate;
(§2) (1) Cell culture • a) Cells in logarithmic growth phase were collected, counted, and re-suspended in a complete medium. • b) The cell concentration was adjusted to an appropriate concentration, and inoculated into a 96-well plate in an amount of 100 μl of cell suspension per well. • c) The cells were incubated for 24 hrs in an incubator at 37° C. with 100% relative humidity and 5% CO2.
(§3) (2) Test of relative inhibition rate • 1) Cells in logarithmic growth phase were collected, counted, and re-suspended in a complete medium. The cell concentration was adjusted to an appropriate concentration (determined according to the optimal test result of cell density), and inoculated into a 96-well plate in an amount of 100 μl of cell suspension per well. The cells were incubated for 24 hrs in an incubator at 37° C. with 100% relative humidity and 5% CO2. • 2) The compound to be tested was diluted with the medium to the corresponding action concentration, and […] were added in an amount of 25 µl/well.
(§4) The IC50 curve was fitted using the software Graphpad Prism 5 and using the calculation formula log(inhibitor) vs response and the IC50 value was calculated.

Karpas 299 cells = test: Tumor cell growth inhibition test (CCK8 detection), Karpas 299; type: cell-based, human
Procedure: as §1
(2) Karpas 299 human T lymphoma cell line, RPMI 1640+10% FBS+1% Sodium Pyruvate;
as §2, §3, §4

NCI-H2228 cells = test: Tumor cell growth inhibition test (CCK8 detection), NCI-H2228; type: cell-based, human
Procedure: as §1
(3) NCI-H2228 human non-small cell lung cancer cell line, RPMI 1640+10% FBS+1% Sodium Pyruvate;
as §2, §3, §4

NCI-H3122 cells = test: Tumor cell growth inhibition test (CCK8 detection), NCI-H3122; type: cell-based, human
Procedure: as §1
(4) NCI-H3122 human lung cancer cell line, RPMI 1640+10% FBS+1% Sodium Pyruvate;
as §2, §3, §4

[1] = system: NCI-H2228 nude mice xenografts; test: In-vivo pharmacodynamic evaluation, NCI-H2228 subcutaneous xenograft; conditions: 10 mg/kg qd intragastric, 14 days, day 21
Procedure: In-Vivo Pharmacodynamic Evaluation
SCID Beige mice, female, 5-6 weeks old, weighed 18+2 g, purchased from Beijing HFK Bioscience Co., Ltd., bred in an SPF level environment.
NCI-H2228 cells were cultured in PRMI-1640 containing 10% fetal bovine serum (FBS) and 1% sodium pyruvate. The cells were cultured in an incubator at 37° C. with 5% CO2.
Establishment of subcutaneous tumor transplantation model in nude mice by cell inoculation: Tumor cells in logarithmic growth phase were collected, counted and re-suspended in PRMI-1640 basal medium. Matrigel was added at a ratio of 1:1, and the concentration of the cell suspension was adjusted to 6×10^7/ml. Tumor cells were subcutaneously inoculated to the right back of nude mice in an amount of 6×10^6/0.1 mL/mouse using a 1 mL syringe (with a […]).
When the tumor volume reached about 200 mm^3, the animals were randomly grouped according to randomized block method, so that the difference in tumor volume of each group was within 10% of the mean. There were 5 groups in total, each having 8 animals. The day of grouping was recorded as Day 0, and the animals were administered immediately after grouping. Compound I-3 of the present invention and Ceritinib were orally administered once a day for consecutive 14 days, and then observed for 7 days. The weight and tumor size of the animals were measured twice a week during the experiment. The clinical symptoms were observed and recorded daily. After the animals were weighed for the last time on Day 21, they were sacrificed by euthanization with CO2. The tumors were taken, weighed and photographed, and the average tumor size was calculated, to investigate the growth inhibitory effect of the test substance Compound I-3 on human lung cancer NCI-H2228 nude mice xenografts under the experimental conditions.
When the tumor in the tumor-bearing mice grew to a measurable size, the mice were randomly divided into 5 groups according to the principle of equal mean tumor volume using SPSS 17.0 software. Compound I-3 was administered by intragastric administration at a dosage of 30, 10, and 3 mg/kg per day. The positive control ceritinib was administered by intragastric administration at a dose of 10 mg/kg per day in a volume of 0.1 ml/10 g. These agents were administered once a day for consecutive 14 days. The animals in the negative control group were given an equal amount of solvent (1% DMSO in physiological saline). During the administration and recovery periods, the body weight and tumor size of the mice were measured 2-3 times per week. The tumor volume and relative tumor volume were calculated based on the measured data. The tumor volume (TV) was calculated by a formula below: TV=1/2×a×b^2, where a and b represent the major and minor diameters of the tumor, respectively. According to the measurement results, the relative tumor volume (RTV) was calculated, by a formula below: RTV=Vt/V0, where V0 is the tumor volume at the start of the experiment, and Vt is the tumor volume measured each time.

ALK enzyme = ALK enzyme (Homo sapiens, UniProt Q9UM73); test: In-vitro ALK kinase inhibitory activity (HTRF kinEASE TK kit); type: biochemical; conditions: inhibitory activity for ALK enzyme, listed as 3, read-out: IC50 range
ALK enzyme, sequence (Q9UM73 19-1620 limits assumed): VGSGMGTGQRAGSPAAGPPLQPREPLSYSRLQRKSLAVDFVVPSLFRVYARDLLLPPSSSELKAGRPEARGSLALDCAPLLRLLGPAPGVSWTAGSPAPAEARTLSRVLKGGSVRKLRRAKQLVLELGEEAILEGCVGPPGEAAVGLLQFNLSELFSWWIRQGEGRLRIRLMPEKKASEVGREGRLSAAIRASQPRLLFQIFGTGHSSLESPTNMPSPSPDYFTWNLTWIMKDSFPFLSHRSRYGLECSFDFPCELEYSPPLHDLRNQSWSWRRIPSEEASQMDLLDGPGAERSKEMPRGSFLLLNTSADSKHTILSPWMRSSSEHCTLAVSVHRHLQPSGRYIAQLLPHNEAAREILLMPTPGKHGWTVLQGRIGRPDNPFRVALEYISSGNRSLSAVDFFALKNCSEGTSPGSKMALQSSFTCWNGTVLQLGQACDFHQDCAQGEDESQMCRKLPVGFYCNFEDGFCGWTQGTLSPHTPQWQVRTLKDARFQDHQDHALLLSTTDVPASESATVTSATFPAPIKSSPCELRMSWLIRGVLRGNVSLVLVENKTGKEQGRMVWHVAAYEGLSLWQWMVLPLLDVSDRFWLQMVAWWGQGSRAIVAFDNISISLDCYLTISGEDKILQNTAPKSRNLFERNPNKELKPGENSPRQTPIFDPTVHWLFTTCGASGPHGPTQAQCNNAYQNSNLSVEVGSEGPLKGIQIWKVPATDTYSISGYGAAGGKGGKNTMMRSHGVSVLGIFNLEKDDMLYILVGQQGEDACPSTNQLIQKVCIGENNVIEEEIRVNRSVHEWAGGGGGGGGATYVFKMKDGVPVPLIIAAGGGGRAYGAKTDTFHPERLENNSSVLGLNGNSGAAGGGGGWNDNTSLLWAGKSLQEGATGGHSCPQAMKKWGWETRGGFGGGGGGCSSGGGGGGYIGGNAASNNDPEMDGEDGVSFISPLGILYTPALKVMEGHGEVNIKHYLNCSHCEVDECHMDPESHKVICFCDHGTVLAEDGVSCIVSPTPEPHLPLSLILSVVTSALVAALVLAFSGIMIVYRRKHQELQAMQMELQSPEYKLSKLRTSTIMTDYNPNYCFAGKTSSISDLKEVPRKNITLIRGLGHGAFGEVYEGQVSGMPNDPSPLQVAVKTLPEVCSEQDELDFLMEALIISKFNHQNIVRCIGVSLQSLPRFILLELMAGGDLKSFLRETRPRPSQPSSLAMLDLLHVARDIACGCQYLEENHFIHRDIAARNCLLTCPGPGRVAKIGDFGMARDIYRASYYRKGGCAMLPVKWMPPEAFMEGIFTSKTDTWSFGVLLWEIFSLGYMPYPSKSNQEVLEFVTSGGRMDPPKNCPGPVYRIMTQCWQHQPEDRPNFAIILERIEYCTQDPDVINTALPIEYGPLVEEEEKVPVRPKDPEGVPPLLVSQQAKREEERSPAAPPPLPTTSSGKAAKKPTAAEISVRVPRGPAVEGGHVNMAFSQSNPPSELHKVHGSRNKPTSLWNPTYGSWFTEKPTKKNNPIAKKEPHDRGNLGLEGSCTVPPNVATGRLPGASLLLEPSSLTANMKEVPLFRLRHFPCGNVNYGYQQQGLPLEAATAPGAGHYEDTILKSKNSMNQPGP
Procedure: Anaplastic Lymphoma Kinase (ALK) Inhibitory Activity The in-vitro kinase assay was performed using the HTRF kinEASE TK kit available from Cisbio. The operation steps are indicated in the instructions of the kit. This method was used to detect the inhibitory effect of the compound to be tested on the activity of ALK enzymes in vitro, including wild-type ALK (Cat.PV3867, Invitrogen), ALK L1196M (Cat. PV6168, Life technologies), and ALK F1174L (Cat. PV6160, Life technologies). The specific operation steps were as follows. […] In addition to the control wells, 4 μL of the diluted compound solution to be tested was added to the reaction wells, and 4 μL of the 2.5% DMSO solution corresponding to the ALK enzyme previously formulated was added to the control wells. (2) 2 μL of a TK-biotin substrate solution previously formulated in a substrate concentration corresponding to the ALK enzyme was added to all reaction wells. (3) 2 μL of a previously prepared enzyme solution of corresponding concentration was added to all the reaction wells except the negative wells, and 2 μL of the 1× kinase buffer corresponding to the enzyme was added to the negative wells to make up the volume. The plate was sealed with a membrane, and incubated for 10 min at room temperature after mixing uniformly, such that the compounds were bond to the enzyme fully. (4) 2 μL of an ATP solution in a concentration corresponding to the ALK enzyme was added to all the reaction wells to initiate the kinase reaction, where the enzyme reaction time by ALK was 60 minutes. (5) An ALK test solution was prepared 5 minutes before the end of the kinase reaction. Streptavidin-XL665 and TK antibody europium cryptate (1:100) solutions for assay having a concentration corresponding to the enzyme were prepared using the detection buffer in the kit. (6) After the completion of the kinase reaction, 5 μl of diluted Streptavidin-XL665 was added to all the reaction wells respectively, and mixed uniformly, and then the diluted TK antibody europium cryptate solution for assay was added immediately. (7) The plate was sealed, mixed uniformly and allowed to react at room temperature for 1 h. The fluorescence signal (excitation at 320 nm, and emission at 665 nm and 615 nm) was detected using the ENVISION instrument (Perkinelmer). The inhibition rate for each well was calculated from the values of the fully active wells and the background signal wells. The values of replicated wells were averaged, and the half-maximal inhibitory activity (IC50) of each compound to be tested was fitted with a professional drawing analysis software PRISM 5.0.

IC50 (Ba/F3 cells; Mus musculus, BaF3, 72 hrs) | IC50 (Karpas 299 cells; Homo sapiens, KARPAS-299, 72 hrs) | IC50 (NCI-H2228 cells; Homo sapiens, NCI-H2228, 72 hrs) | IC50 (NCI-H3122 cells; Homo sapiens, NCI-H3122, 72 hrs) | IC50 (ALK enzyme) | IC50 (Ba/F3 cells; 72 hrs) | IC50 (Karpas 299 cells; 72 hrs) | IC50 (NCI-H2228 cells; 72 hrs) | IC50 (NCI-H3122 cells; 72 hrs) | SMILES | IR (%) [1] | RTV d21 [1] | T/C (%) [1]
2390 nM | 35.6 nM | 97.1 nM | 27.2 nM |  |  |  |  |  | Cc1cc(Nc2ncc(Cl)c(Nc3ccccc3S(=O)(=O)C(C)C)n2)c(OC(C)C)cc1C1CCNCC1 [Ceritinib, reference compound] | 26.07% | 2.68 ± 0.28 | 71.47%
 |  |  |  | 1 to 10 nM | 1240 nM | 7.64 nM | 41.3 nM | 4.03 nM | COc1cc(C2CCNCC2)c(C)cc1Nc1ncc(Cl)c(Nc2ccccc2S(=O)(=O)C(C)C)n1 [Compound I-3, 5-chloro-N4-(2-(isopropylsulfonyl)phenyl)-N2-(2-D3-methoxy-5-methyl-4-(piperidin-4-yl)phenyl)pyrimidin-2,4-diamine] |  |  | 

Source: US10647694B2, “Diphenylaminopyrimidine and triazine compound, and pharmaceutical composition and use thereof” (ARROMAX PHARMATECH CO., LTD., priority 2016, dated 2020)
